Target: T1, human neprilysin (EC 3.4.24.11; NEP) (Homo sapiens, UniProt P08473)
T1 construct: purchased R&D Systems, Minneapolis, Minn; 1182-ZN
Test: In vitro enzyme inhibition assay at human NEP (fluorogenic peptide substrate)
Format: biochemical
Settings: recombinant human NEP; 37° C.; substrate Mca-D-Arg-Arg-Leu-Dap-(Dnp)-OH 10 μM; values given as ranges; read-out: pKi values at human NEP (converted)
Procedure: In vitro Assays for the Quantitation of Inhibitor Potencies at Human and Rat NEP, and Human ACE
The inhibitory activities of compounds at human and rat neprilysin (EC 3.4.24.11; NEP) and human angiotensin converting enzyme (ACE) were determined using in vitro assays as described below.
Recombinant human NEP and recombinant human ACE were obtained commercially (R&D Systems, Minneapolis, Minn., catalog numbers 1182-ZN and 929-ZN, respectively). The fluorogenic peptide substrate Mca-D-Arg-Arg-Leu-Dap-(Dnp)-OH (Medeiros et al. (1997) Braz. J. Med. Biol. Res. 30:1157-62; Anaspec, San Jose, Calif.) and Abz-Phe-Arg-Lys(Dnp)-Pro-OH (Araujo et al. (2000) Biochemistry 39:8519-8525; Bachem, Torrance, Calif.) were used in the NEP and ACE assays respectively.
The assays were performed in 384-well white opaque plates at 37° C. using the fluorogenic peptide substrates at a concentration of 10 μM in Assay Buffer (NEP: 50 mM HEPES, pH 7.5, 100 mM NaCl, 0.01% polyethylene glycol sorbitan monolaurate (Tween-20), 10 μM ZnSO4; ACE: 50 mM HEPES, pH 7.5, 100 mM NaCl, 0.01% Tween-20, 1 μM ZnSO4).
Test compounds were assayed over the range of concentrations from 10 μM to 20 pM. Test compounds were added to the enzymes and incubated for 30 minute at 37° C. prior to initiating the reaction by the addition of substrate. Reactions were terminated after 20 minutes of incubation at 37° C. by the addition of glacial acetic acid to a final concentration of 3.6% (v/v).
Plates were read on a fluorometer with excitation and emission wavelengths set to 320 nm and 405 nm, respectively Inhibition constants were obtained by nonlinear regression of the data using the equation (GraphPad Software, Inc., San Diego, Calif.): v=v0/[1+(I/K′)] where v is the reaction rate, v0 is the uninhibited reaction rate, I is the inhibitor concentration and K′ is the apparent inhibition constant.
Compounds of the invention were tested in this assay and found to have pKi values at human NEP as follows.

T1 sequence (P08473 52-750 limits assumed): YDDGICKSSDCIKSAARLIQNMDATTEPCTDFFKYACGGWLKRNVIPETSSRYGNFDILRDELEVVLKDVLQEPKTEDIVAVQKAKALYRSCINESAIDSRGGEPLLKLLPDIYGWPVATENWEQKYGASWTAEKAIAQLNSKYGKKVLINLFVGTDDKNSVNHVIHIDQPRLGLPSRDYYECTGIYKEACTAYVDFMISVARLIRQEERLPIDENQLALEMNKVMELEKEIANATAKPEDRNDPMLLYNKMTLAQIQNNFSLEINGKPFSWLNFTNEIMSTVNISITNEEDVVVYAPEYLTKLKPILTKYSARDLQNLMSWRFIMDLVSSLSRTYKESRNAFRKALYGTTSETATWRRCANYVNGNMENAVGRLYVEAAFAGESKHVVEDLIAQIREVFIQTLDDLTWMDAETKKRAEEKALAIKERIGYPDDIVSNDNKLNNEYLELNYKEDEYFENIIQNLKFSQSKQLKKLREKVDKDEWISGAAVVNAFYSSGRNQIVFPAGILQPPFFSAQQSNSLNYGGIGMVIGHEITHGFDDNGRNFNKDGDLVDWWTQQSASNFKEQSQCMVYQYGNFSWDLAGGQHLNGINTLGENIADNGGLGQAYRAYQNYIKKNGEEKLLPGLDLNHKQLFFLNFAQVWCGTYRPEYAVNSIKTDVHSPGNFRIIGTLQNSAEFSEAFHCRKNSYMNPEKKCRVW

First: O=C(CCCc1cc(F)ccc1C(=O)O)N[C@H](Cc1ccccc1Cl)[C@@H](O)C(=O)O [Example 2-1, 2-{3-[(1R,2R)-2-Carboxy-1-(2-chlorobenzyl)-2-hydroxy-ethylcarbamoyl]-propyl}-4-fluoro-benzoic acid]
Second: O=C(N[C@H](Cc1ccccc1Cl)[C@@H](O)C(=O)O)c1cc(F)cc(-c2ccccc2C(=O)O)c1 [Example 6-1, 5′-[(1R,2R)-2-Carboxy-1-(2-chlorobenzyl)-2-hydroxy-ethylcarbamoyl]-3′-fluoro-biphenyl-2-carboxylic acid]
The Ki of the first is lower: no more than 1 nM for the first, 1.26 to 10 nM for the second.

First: O=C(N[C@H](Cc1ccccc1Cl)[C@@H](O)C(=O)O)c1cc(F)c(F)c(-c2ccccc2C(=O)O)c1 [Example 3, 5′-[(1R,2R)-2-Carboxy-1-(2-chlorobenzyl)-2-hydroxy-ethylcarbamoyl]-2′,3′-difluoro-biphenyl-2-carb oxylic Acid]
Second: O=C(N[C@H](Cc1ccccc1Cl)[C@@H](O)C(=O)O)c1cc(Cl)c(F)c(-c2ccccc2C(=O)O)c1 [Example 6-4, 5′-[(1R,2R)-2-Carboxy-1-(2-chlorobenzyl)-2-hydroxy-ethylcarbamoyl]-3′-chloro-2′-fluoro-biphenyl-2-carboxylic acid]
The Ki of the first is lower: no more than 1 nM for the first, 1.26 to 10 nM for the second.

Compared with CCc1ccc(C(=O)N[C@H](Cc2ccccc2Cl)[C@@H](O)C(=O)O)cc1-n1c(=O)[nH]c2sc(C)cc2c1=O [Example 4, (2R,3R)-4-(2-Chlorophenyl)-3-[4-ethyl-3-(6-methyl-2,4-dioxo-1,4-dihydro-2H-thieno[2,3-d]pyrimidin-3-yl)-benzoylamino]-2-hydroxy-butyric Acid], CCc1ccc(C(=O)N[C@H](Cc2ccccc2Cl)[C@@H](O)C(=O)O)cc1N1N=C(C)CC1=O [Example 6-17, (2R,3R)-4-(2-Chlorophenyl)-3-[4-ethyl-3-(3-methyl-5-oxo-4,5-dihydro-pyrazol-1-yl)-benzoylamino]-2-hydroxy-butyric acid] is higher in Ki: no more than 1 nM for the first, 1.26 to 10 nM for the second.

O=C(N[C@H](Cc1ccccc1Cl)[C@@H](O)C(=O)O)c1cc(Cl)cc(-c2ccccc2C(=O)O)c1 [Example 6-2, 5′-[(1R,2R)-2-Carboxy-1-(2-chlorobenzyl)-2-hydroxy-ethylcarbamoyl]-3′-chloro-biphenyl-2-carboxylic acid] and O=C(N[C@H](Cc1ccccc1Cl)[C@@H](O)C(=O)O)c1ccc(Cl)c(-c2ccccc2C(=O)O)c1 [Example 6-3, 5′-[(1R,2R)-2-Carboxy-1-(2-chlorobenzyl)-2-hydroxy-ethylcarbamoyl]-2′-chloro-biphenyl-2-carboxylic acid] cannot be ordered by Ki: no more than 1 nM for the first, no more than 1 nM for the second.

Compared with Cc1ccc(C(=O)N[C@H](Cc2ccccc2Cl)[C@H](O)C(=O)O)cc1-c1ccccc1C(=O)O [Example 6-5, 5′-[(1R,2S)-2-Carboxy-1-(2-chlorobenzyl)-2-hydroxy-ethylcarbamoyl]-2′-methyl-biphenyl-2-carboxylic acid], Cc1ccc(C(=O)N[C@H](Cc2ccccc2Cl)[C@@H](O)C(=O)O)cc1-c1ccccc1C(=O)O [Example 6-6, 5′-[(1R,2R)-2-Carboxy-1-(2-chlorobenzyl)-2-hydroxy-ethylcarbamoyl]-2′-methyl-biphenyl-2-carboxylic acid] is lower in Ki: 12.6 to 100 nM for the first, no more than 1 nM for the second.

First: COc1ccc(C(=O)N[C@H](Cc2ccccc2Cl)[C@@H](O)C(=O)O)cc1-c1ccccc1C(=O)O [Example 6-7, 5′-[(1R,2R)-2-Carboxy-1-(2-chlorobenzyl)-2-hydroxy-ethylcarbamoyl]-2′-methoxy-biphenyl-2-carboxylic acid]
Second: Cc1cc(C(=O)N[C@H](Cc2ccccc2Cl)[C@@H](O)C(=O)O)ccc1-c1ccccc1C(=O)O [Example 6-8, 4′-[(1R,2R)-2-Carboxy-1-(2-chlorobenzyl)-2-hydroxy-ethylcarbamoyl]-2′-methyl-biphenyl-2-carboxylic acid]
The Ki of the first is higher: 12.6 to 100 nM for the first, 1.26 to 10 nM for the second.

First: O=C(N[C@H](Cc1ccccc1Cl)[C@@H](O)C(=O)O)c1ccc(-c2ccccc2C(=O)O)c(F)c1 [Example 6-9, 4′-[(1R,2R)-2-Carboxy-1-(2-chlorobenzyl)-2-hydroxy-ethylcarbamoyl]-2′-fluoro-biphenyl-2-carboxylic acid]
Second: O=C(N[C@H](Cc1ccccc1)[C@@H](O)C(=O)O)c1cccc(-c2ccc(Cl)cc2C(=O)O)c1 [Example 10-11, 3′-((1R,2R)-1-Benzyl-2-carboxy-2-hydroxy-ethylcarbamoyl)-4-chloro-biphenyl-2-carboxylic acid]
The Ki of the first is lower: 1.26 to 10 nM for the first, 12.6 to 100 nM for the second.

First: O=C(N[C@H](Cc1ccccc1Cl)[C@@H](O)C(=O)O)c1ccc(N2N=C(C(F)(F)F)CC2=O)cc1 [Example 6-14, (2R,3R)-4-(2-Chlorophenyl)-2-hydroxy-3-[4-(5-oxo-3-trifluoromethyl-4,5-dihydro-pyrazol-1-yl)-benzoylamino]-butyric acid]
Second: CC1=NN(c2ccc(C(=O)N[C@H](Cc3ccccc3Cl)[C@H](O)C(=O)O)cc2)C(=O)C1 [Example 6-15, (2S,3R)-4-(2-Chlorophenyl)-2-hydroxy-3-[4-(3-methyl-5-oxo-4,5-dihydro-pyrazol-1-yl)-benzoylamino]-butyric acid]
The Ki of the first is higher: 12.6 to 100 nM for the first, 1.26 to 10 nM for the second.

CC1=NN(Cc2ccc(C(=O)N[C@H](Cc3ccccc3Cl)[C@@H](O)C(=O)O)cc2)C(=O)C1 [Example 6-19, (2R,3R)-4-(2-Chlorophenyl)-2-hydroxy-3-[4-(3-methyl-5-oxo-4,5-dihydro-pyrazol-1-ylmethyl)-benzoylamino]-butyric acid] and Cc1nn(-c2ccc(C(=O)N[C@H](Cc3ccccc3)[C@@H](O)C(=O)O)cc2)c(C)c1Cl [Example 10-1, (2R,3R)-3-[4-(4-Chloro-3,5-dimethyl-pyrazol-1-yl)-benzoylamino]-2-hydroxy-4-phenyl-butyric acid] fall in the same range of Ki: 12.6 to 100 nM for the first, 12.6 to 100 nM for the second.

O=C(N[C@H](Cc1ccccc1)[C@@H](O)C(=O)O)c1ccc(-n2cccn2)cc1 [Example 10-2, (2R,3R)-2-Hydroxy-4-phenyl-3-(4-pyrazol-1-yl-benzoylamino)-butyric acid] and O=C(N[C@H](Cc1ccccc1)[C@@H](O)C(=O)O)c1ccc(-n2ccc(C(F)(F)F)n2)cc1 [Example 10-3, (2R,3R)-2-Hydroxy-4-phenyl-3-[4-(3-trifluoromethyl-pyrazol-1-yl)-benzoylamino]-butyric acid] fall in the same range of Ki: 12.6 to 100 nM for the first, 12.6 to 100 nM for the second.

Cc1cc(C)n(-c2ccc(C(=O)N[C@H](Cc3ccccc3)[C@@H](O)C(=O)O)cc2)n1 [Example 10-4, (2R,3R)-3-[4-(3,5-Dimethyl-pyrazol-1-yl)-benzoylamino]-2-hydroxy-4-phenyl-butyric acid] and Cc1cc(C)n(-c2cccc(C(=O)N[C@H](Cc3ccccc3)[C@@H](O)C(=O)O)c2)n1 [Example 10-5, (2R,3R)-3-[3-(3,5-Dimethyl-pyrazol-1-yl)-benzoylamino]-2-hydroxy-4-phenyl-butyric acid] fall in the same range of Ki: 12.6 to 100 nM for the first, 12.6 to 100 nM for the second.

Cc1cc(C)n(-c2cc(C(=O)N[C@H](Cc3ccccc3)[C@@H](O)C(=O)O)ccc2F)n1 [Example 10-6, (2R,3R)-3-[3-(3,5-Dimethylpyrazol-1-yl)-4-fluorobenzoylamino]-2-hydroxy-4-phenyl-butyric acid] and Cc1cc(C)n(-c2cc(C(=O)N[C@H](Cc3ccccc3)[C@@H](O)C(=O)O)ccc2C)n1 [Example 10-7, (2R,3R)-3-[3-(3,5-Dimethylpyrazol-1-yl)-4-methylbenzoylamino]-2-hydroxy-4-phenyl-butyric acid] fall in the same range of Ki: 12.6 to 100 nM for the first, 12.6 to 100 nM for the second.

Cc1ccc(C(=O)N[C@H](Cc2ccccc2)[C@@H](O)C(=O)O)cc1-n1ccc(C(=O)O)n1 [Example 10-8, 1-[5-((1R,2R)-1-Benzyl-2-carboxy-2-hydroxyethylcarbamoyl)-2-methyl-phenyl]-1H-pyrazole-3-carboxylic acid] and O=C(N[C@H](Cc1ccccc1)[C@@H](O)C(=O)O)c1cccc(-c2ccccc2C(=O)O)c1 [Example 10-9, 3′-((1R,2R)-1-Benzyl-2-carboxy-2-hydroxy-ethylcarbamoyl)-biphenyl-2-carboxylic acid] fall in the same range of Ki: 12.6 to 100 nM for the first, 12.6 to 100 nM for the second.

O=C(N[C@H](Cc1ccccc1)[C@@H](O)C(=O)O)c1cccc(-c2ccc(F)cc2C(=O)O)c1 [Example 10-10, 3′-((1R,2R)-1-Benzyl-2-carboxy-2-hydroxy-ethylcarbamoyl)-4-fluoro-biphenyl-2-carboxylic acid] and O=C(N[C@H](Cc1ccccc1)[C@@H](O)C(=O)O)c1cccc(-c2cc(Cl)ccc2C(=O)O)c1 [Example 10-12, 3′-((1R,2R)-1-Benzyl-2-carboxy-2-hydroxy-ethylcarbamoyl)-5-chloro-biphenyl-2-carboxylic acid] fall in the same range of Ki: 12.6 to 100 nM for the first, 12.6 to 100 nM for the second.

COc1ccc(C(=O)O)c(-c2cccc(C(=O)N[C@H](Cc3ccccc3)[C@@H](O)C(=O)O)c2)c1 [Example 10-13, 3′-((1R,2R)-1-Benzyl-2-carboxy-2-hydroxy-ethylcarbamoyl)-5-methoxy-biphenyl-2-carboxylic acid] gave a Ki of 12.6 to 100 nM.

— patent US8686184B2, “Neprilysin inhibitors” (Theravance, Inc., priority 2011, dated 2014)
